# According to patent US11691962B2 (eXIthera Pharmaceuticals, Inc., priority 2018, dated 2023):
# Columns and labels:
# [1] = biological target: Factor XIa (Homo sapiens (Human), UniProt P03951); test: Factor XIa enzyme inhibition assay (dose response, fluorogenic AMC substrate); assay type: biochemical; settings: read-out: hFXIa IC50
# In short: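 Fluorogenic progress curves (30 min, 1-min reads, 30° C) were recorded for 0.25 nM FXIa cleaving 50 μM Glp-Pro-Arg-AMC in Hepes pH 7.4 buffer with NaCl and Tween 20. Compounds were serially two-fold diluted, and IC50 was fitted with a Hill equation.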
# [2] = Caco-2 cell permeability assay; assay type: in vitro ADME, human; settings: human, 37° C.; for Papp A→B at 60 min, 10 μM: Caco-2, apical to basolateral; for Papp B→A at 40 min, 10 μM: Caco-2, basolateral to apical
# In short: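 Caco-2 monolayers (days 21-25 post-seeding) received 10 μM compound in HBSS-MES pH 6.5 or HBSS-HEPES pH 7.4 (1% DMSO) at 37 °C, for 60 min A-B or 40 min B-A. Donor and receiver samples were quantified by HPLC-MS/MS (SRM), and Papp and recovery were calculated.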
# [3] = Aqueous solubility in PBS by HPLC-UV/VIS; assay type: physicochemical; settings: phosphate buffered saline, aqueous buffer, kinetic from dmso stock; PBS pH 7.4, 2% DMSO, 24 h at room temperature
# Method: The following procedure was used to determine the aqueous solubility of a test compound in phosphate buffered saline (PBS-NaCl 137 mM, KCl 2.7 mM, Na2HPO4 8.1 mM, KH2PO4 1.5 mM, pH 7.4) in 96-well plate format by HPLC-UV/VIS analysis. The test compound was prepared at 200 μM in PBS from a 10 mM DMSO stock solution. The final DMSO concentration was 2%. The PBS buffer samples were mixed thoroughly followed by incubation at room temperature for 24 h. At the end of the incubation, the PBS buffer samples were centrifuged and supernatants analyzed by HPLC. The aqueous solubility (μM) of the test compound in PBS was determined by comparing the peak area of the principal peak in the calibration standard (200 μM) with the peak area of the corresponding peak in each of the PBS samples. The range of the assay was approximately 0.5 μM to 200 μM. The reference compounds used in each assay were metoprolol, rifampicin, ketoconazole, phenytoin, haloperidol, simvastatin, diethylstilbestrol, and tamoxifen ranking from fully soluble (200 μM) to poorly soluble (<1 μM).
# Chain of Factor XIa (P03951 388-625): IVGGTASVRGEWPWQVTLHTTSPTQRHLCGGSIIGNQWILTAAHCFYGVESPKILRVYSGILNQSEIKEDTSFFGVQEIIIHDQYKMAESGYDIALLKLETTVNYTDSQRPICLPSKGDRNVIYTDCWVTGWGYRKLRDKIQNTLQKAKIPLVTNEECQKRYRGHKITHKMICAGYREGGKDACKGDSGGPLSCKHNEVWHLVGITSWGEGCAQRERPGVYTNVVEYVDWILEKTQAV
# Chain of Factor XIa (P03951 19-387 partner): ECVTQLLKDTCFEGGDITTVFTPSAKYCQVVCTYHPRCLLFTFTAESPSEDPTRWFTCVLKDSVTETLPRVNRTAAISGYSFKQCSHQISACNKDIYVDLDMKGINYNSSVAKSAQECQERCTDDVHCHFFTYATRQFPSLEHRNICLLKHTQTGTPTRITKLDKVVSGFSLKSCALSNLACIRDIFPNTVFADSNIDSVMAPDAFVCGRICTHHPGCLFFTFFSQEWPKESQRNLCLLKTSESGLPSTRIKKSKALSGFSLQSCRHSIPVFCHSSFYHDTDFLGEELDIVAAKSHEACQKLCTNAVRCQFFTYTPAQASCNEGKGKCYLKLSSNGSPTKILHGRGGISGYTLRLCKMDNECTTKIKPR
Structure (SMILES),IC50 [1] [nM],"Papp A→B at 60 min, 10 μM [2] [×10⁻⁶ cm/s]","Papp B→A at 40 min, 10 μM [2] [×10⁻⁶ cm/s]",solubility at 24 h [3] [µM]
"C[C@@H](NC(=O)N1C(=O)[C@H](Cc2ccnc(N)c2)[C@H]1C(=O)N(C)c1ccn(C)n1)C1CCCCC1 [Compound 1-50, (2S,3R)-3-((2-aminopyridin-4-yl)methyl)-N2-(1-methyl-1H-pyrazol-3-yl)-N1-((R)-1-cyclohexylethyl)-N2-methyl-4-oxoazetidine-1,2-dicarboxamide]",10 to 100,< 10,31 to 50,> 100
"CC(C)[C@@H](NC(=O)N1C(=O)[C@H](Cc2ccnc(N)c2)[C@H]1C(=O)N(C)c1ccn(C)n1)C1CCCCC1 [Compound 1-57, (2S,3R)-3-((2-aminopyridin-4-yl)methyl)-N2-(1-methyl-1H-pyrazol-3-yl)-N1-((R)-1-cyclohexyl-2-methylpropyl)-N2-methyl-4-oxoazetidine-1,2-dicarboxamide]",10 to 100,11 to 30,11 to 30,10 to 100
"CC[C@@H](NC(=O)N1C(=O)[C@H](Cc2cc(C)nc(NC)c2)[C@H]1C(=O)N(C)c1ccnn1C)C1CCCCC1 [Compound 1-62, (2S,3R)-3-((2-methylamino-6-methylpyridin-4-yl)methyl)-N2-(1-methyl-1H-pyrazol-5-yl)-N1-((R)-1-cyclohexylpropyl)-N2-methyl-4-oxoazetidine-1,2-dicarboxamide]",10 to 100,11 to 30,11 to 30,> 100
"CC[C@@H](NC(=O)N1C(=O)[C@H](Cc2cc(C)nc(N)c2)[C@H]1C(=O)N(C)c1ccnn1C)C1CCCCC1 [Compound 1-67, (2S,3R)-3-((2-amino-6-methylpyridin-4-yl)methyl)-N2-(1-methyl-1H-pyrazol-5-yl)-N1-((R)-1-cyclohexylpropyl)-N2-methyl-4-oxoazetidine-1,2-dicarboxamide]",10 to 100,11 to 30,31 to 50,> 100
"CC[C@@H](NC(=O)N1C(=O)[C@H](Cc2ccnc(N)c2)[C@H]1C(=O)N(C)c1nccn1C)c1ccc(C)nc1 [Compound 1-81, (2S,3R)-3-((2-aminopyridin-4-yl)methyl)-N2-(1-methyl-1H-imidazol-2-yl)-N1-((R)-1-(6-methylpyridin-3-yl)propyl)-N2-methyl-4-oxoazetidine-1,2-dicarboxamide]",10 to 100,< 10,< 10,> 100
CC[C@@H](NC(=O)N1C(=O)[C@H](Cc2ccnc(N)c2)[C@H]1C(=O)N(C)c1nccn1C)c1ccccc1Cl [Compound 1-83],10 to 100,< 10,> 50,> 100
"CC[C@@H](NC(=O)N1C(=O)[C@H](Cc2ccnc(N)c2)[C@H]1C(=O)N(C)c1ccn(C)n1)c1cccc(Cl)c1 [Compound 1-91, (2S,3R)-3-((2-aminopyridin-4-yl)methyl)-N2-(1-methyl-1H-pyrazol-3-yl)-N1-((R)-1-(3-chlorophenyl)propyl)-N2-methyl-4-oxoazetidine-1,2-dicarboxamide]",< 10,< 10,11 to 30,> 100
"CC[C@@H](NC(=O)N1C(=O)[C@H](Cc2ccnc(N)c2)[C@H]1C(=O)N(C)c1ccnn1C)c1ccccc1 [Compound 1-92, (2S,3R)-3-((2-aminopyridin-4-yl)methyl)-N2-(1-methyl 1H-pyrazol-5-yl)-N1-((R)-1-phenylpropyl)-N2-methyl-4-oxoazetidine-1,2-dicarboxamide]",< 10,< 10,31 to 50,> 100
"CC[C@@H](NC(=O)N1C(=O)[C@H](Cc2cc(C)nc(N)c2)[C@H]1C(=O)N(C)c1nccn1C)c1cc(F)ccc1F [Compound 1-137, (2S,3R)-3-((2-amino-6-methylpyridin-4-yl)methyl)-N2-(1-methyl-1H-imidazol-2-yl)-N1-((R)-1-(2,5-difluorophenyl)propyl)-N2-methyl-4-oxoazetidine-1,2-dicarboxamide]",< 10,< 10,11 to 30,> 100

# Other lines, results leading:
IC50 [1] [nM],"Papp A→B at 60 min, 10 μM [2] [×10⁻⁶ cm/s]","Papp B→A at 40 min, 10 μM [2] [×10⁻⁶ cm/s]",solubility at 24 h [3] [µM],Structure (SMILES)
< 10,< 10,31 to 50,> 100,"CC[C@@H](NC(=O)N1C(=O)[C@H](Cc2ccnc(N)c2)[C@H]1C(=O)N(C)c1ccn(C)n1)C1CCCCC1 [Compound 1-47, (2S,3R)-3-((2-aminopyridin-4-yl)methyl)-N2-(1-methyl-1H-pyrazol-3-yl)-N1-((R)-1-cyclohexylpropyl)-N2-methyl-4-oxoazetidine-1,2-dicarboxamide]"
< 10,< 10,31 to 50,> 100,"CC[C@@H](NC(=O)N1C(=O)[C@H](Cc2cc(C)nc(N)c2)[C@H]1C(=O)N(C)c1nccn1C)c1ccccc1 [Compound 1-51, (2S,3R)-3-((2-amino-6-methylpyridin-4-yl)methyl)-N2-(1-methyl-1H-imidazol-2-yl)-N1-((R)-1-phenylpropyl)-N2-methyl-4-oxoazetidine-1,2-dicarboxamide]"
< 10,< 10,31 to 50,> 100,"CC[C@@H](NC(=O)N1C(=O)[C@H](Cc2ccnc(N)c2)[C@H]1C(=O)N(C)c1nccn1C)C1CCCCC1 [Compound 1-55, (2S,3R)-3-((2-aminopyridin-4-yl)methyl)-N2-(1-methyl-1H-imidazol-2-yl)-N1-((R)-1-cyclohexylpropyl)-N2-methyl-4-oxoazetidine-1,2-dicarboxamide]"
< 10,11 to 30,11 to 30,> 100,"CN(C(=O)[C@@H]1[C@@H](Cc2ccnc(N)c2)C(=O)N1C(=O)N[C@@H](C1CCCCC1)C1CC1)c1ccn(C)n1 [Compound 1-58, (2S,3R)-3-((2-aminopyridin-4-yl)methyl)-N2-(1-methyl-1H-pyrazol-3-yl)-N1-((R)-cyclohexyl-cyclopropylmethyl)-N2-methyl-4-oxoazetidine-1,2-dicarboxamide]"
< 10,11 to 30,31 to 50,> 100,"CC[C@@H](NC(=O)N1C(=O)[C@H](Cc2ccnc(N)c2)[C@H]1C(=O)N(C)c1ccnn1C)C1CCCCC1 [Compound 1-63, (2S,3R)-3-((2-aminopyridin-4-yl)methyl)-N2-(1-methyl-1H-pyrazol-5-yl)-N1-((R)-1-cyclohexylpropyl)-N2-methyl-4-oxoazetidine-1,2-dicarboxamide]"
< 10,< 10,31 to 50,> 100,"CC[C@@H](NC(=O)N1C(=O)[C@H](Cc2ccnc(N)c2)[C@H]1C(=O)N(C)c1nccn1C)c1cccc(C)c1 [Compound 1-80, (2S,3R)-3-((2-aminopyridin-4-yl)methyl)-N2-(1-methyl-1H-imidazol-2-yl)-N1-((R)-1-(3-methylphenyl)propyl)-N2-methyl-4-oxoazetidine-1,2-dicarboxamide]"
< 10,< 10,11 to 30,> 100,"CC[C@@H](NC(=O)N1C(=O)[C@H](Cc2ccnc(N)c2)[C@H]1C(=O)N(C)c1cnn(C)c1)c1ccccc1 [Compound 1-88, (2S,3R)-3-((2-aminopyridin-4-yl)methyl)-N2-(1-methyl-1H-pyrazol-4-yl)-N1-((R)-1-phenylpropyl)-N2-methyl-4-oxoazetidine-1,2-dicarboxamide]"
< 10,< 10,11 to 30,> 100,"CC[C@@H](NC(=O)N1C(=O)[C@H](Cc2cc(C)nc(N)c2)[C@H]1C(=O)N(C)c1ccn(C)n1)c1cccc(Cl)c1 [Compound 1-89, (2S,3R)-3-((2-amino-6-methylpyridin-4-yl)methyl)-N2-(1-methyl-1H-pyrazol-3-yl)-N1-((R)-1-(3-chlorophenyl)propyl)-N2-methyl-4-oxoazetidine-1,2-dicarboxamide]"
< 10,< 10,11 to 30,> 100,"CC[C@@H](NC(=O)N1C(=O)[C@H](Cc2ccnc(N)c2)[C@H]1C(=O)N(C)c1cn(C)cn1)c1ccccc1 [Compound 1-90, (2S,3R)-3-((2-aminopyridin-4-yl)methyl)-N2-(1-methyl-1H-imidazol-4-yl)-N1-((R)-1-phenylpropyl)-N2-methyl-4-oxoazetidine-1,2-dicarboxamide]"
